Test results reported in publication PMC6255045, “Tyrosinase Inhibitor Activity of Coumarin-Resveratrol Hybrids” (Molecules, 2009).
Like-named read-outs stand apart in the source and are kept apart here.

Key:
[1] = system: mushroom tyrosinase; test: Tyrosinase inhibition assay (diphenolase activity, L-DOPA as substrate); type: biochemical; details: for tyrosinase inhibitory effect (in words): diphenolase activity; for tyrosinase inhibitory effect (in words) / % inhibition (at 0.8 mM) / IC50: substrate L-DOPA; for % inhibition (at 0.8 mM) / IC50: mushroom tyrosinase; for % inhibition (at 0.8 mM): compound at 0.8 mM
Protocol: Tyrosinase activity assays were performed with L-DOPA as substrate, as previously described with slight modifications. The pre-incubation with enzyme consisted of a 1/15 M phosphoric acid buffer solution (pH 6.8, 1.8 mL), an aqueous solution of mushroom tyrosinase (1000 U/mL, Sigma Chemical Co., 0.1 mL) and DMSO (0.1 mL) with or without an added sample. The mixture was pre-incubated at 25°C for 10 minutes. Then, a 1.5 mM L-DOPA solution (1 mL) was added and the reaction was monitored at 475 nm for 5 min. The detected absorbance increases accompanying the oxidation of the substrate (L-DOPA). The final concentration of dopaquinone was measured using the molar absorption coefficient of 3,700 M^-1 cm^-1 [31]. One unit of enzymatic activity was defined as the amount of enzyme transforming 1 μmole of L-DOPA per minute. The percentage of inhibition of tyrosinase activity was calculated as inhibition (%) = (A-B)/A×100, where A represents the difference in the absorbance of control sample between an incubation time of 0.5 and 1.0 min, and B represents the difference in absorbance of the test sample between an incubation time of 0.5 and 1.0 min. The activity of mushroom tyrosinase was determinate by spectrophotometric techniques (Varian Cary 50). DMSO inhibitory activity, in the same experimental conditions, was evaluated as 10.7%.

[2] = target: mushroom tyrosinase; details: cited from earlier work

Compound | tyrosinase inhibitory effect (in words) [1] | % inhibition (at 0.8 mM) [1] | IC50 [1] | other results
O=c1oc2cc(O)ccc2cc1-c1ccccc1 [Compound 1] | did not inhibit any tyrosinase activity | 0% | – | –
O=c1oc2ccccc2cc1-c1ccc(O)cc1 [Compound 2] | no demonstrable inhibitory effects | 0% | – | –
O=c1oc2cc(O)ccc2cc1-c1ccc(O)cc1 [Compound 3] | no demonstrable inhibitory effects | 9.6% | – | –
O=c1oc2ccc(O)cc2cc1-c1ccc(O)cc1 [Compound 4, 6-hydroxy-3-(4’-hydroxyphenyl)coumarin] | – | 26.7% | 1560 µM | –
O=c1oc2ccc(O)cc2cc1-c1cc(O)cc(O)c1 [Compound 5] | – | 0% | – | –
O=c1oc2cc(O)ccc2cc1-c1cc(O)cc(O)c1 [Compound 6] | – | 19.3% | 3680 µM | –
O=c1oc2c(O)cc(O)cc2cc1-c1cc(O)cc(O)c1 [Compound 7] | – | 0% | – | –
O=c1oc2c(O)cc(O)cc2cc1-c1cc(O)c(O)c(O)c1 [Compound 8, 3-(3’,4’,5’-trihydroxyphenyl)-6,8-dihydroxycoumarin] | – | 68.3% | 270 µM | type of tyrosinase inhibition (Dixon plot) ([1]; with respect to L-DOPA as substrate at 0.5, 0.25 and 0.1 mM): non-competitive
O=c1ccc2ccc(O)cc2o1 [Umbelliferone] | – | – | – | IC50 ([2]; mushroom tyrosinase, reference compound, ref [20]): 420 µM
O=c1cc(-c2cc(O)c(O)c(O)c2)oc2cc(O)cc(O)c12 [pentahydroxyflavone, 3’,4’,5,5’,7-pentahydroxyflavone] | – | – | – | type of tyrosinase inhibition ([2]; previously reported, ref [29]): competitive inhibitor
